# Tests used:
# CYP3A4 [1] = biological target: CYP3A4 (Homo sapiens, UniProt P08684); experiment: Midazolam 1'-hydroxylation; format: in vitro ADME; conditions: for % inhibition (10 µM) of CYP3A4 / IC50 / % inhibition (10 µM) of CYP3A4, class: midazolam hydroxylation; for % inhibition (10 µM) of CYP3A4: average of triplicates ± S.D.; for IC50: read-out: IC50 CYP3A4
# CYP2D6 = CYP2D6 (Homo sapiens, UniProt P10635); experiment: Dextromethorphan demethylation; format: in vitro ADME
# [2] = tested on: tamoxifen N-demethylation (N-desmethyl TAM formation) by human liver microsomes; experiment: in vitro; conditions: female, pH 7.4
# [3] = tested on: tamoxifen 4-hydroxylation (4-OH TAM formation) by human liver microsomes; experiment: in vitro; conditions: female, pH 7.4
# [4] = tested on: tamoxifen α-hydroxylation (α-OH TAM formation) by human liver microsomes; experiment: in vitro; conditions: female, pH 7.4
# CYP3A4 [5] = conditions: cited from earlier work
# CYP2D6, sequence (P10635 whole entry): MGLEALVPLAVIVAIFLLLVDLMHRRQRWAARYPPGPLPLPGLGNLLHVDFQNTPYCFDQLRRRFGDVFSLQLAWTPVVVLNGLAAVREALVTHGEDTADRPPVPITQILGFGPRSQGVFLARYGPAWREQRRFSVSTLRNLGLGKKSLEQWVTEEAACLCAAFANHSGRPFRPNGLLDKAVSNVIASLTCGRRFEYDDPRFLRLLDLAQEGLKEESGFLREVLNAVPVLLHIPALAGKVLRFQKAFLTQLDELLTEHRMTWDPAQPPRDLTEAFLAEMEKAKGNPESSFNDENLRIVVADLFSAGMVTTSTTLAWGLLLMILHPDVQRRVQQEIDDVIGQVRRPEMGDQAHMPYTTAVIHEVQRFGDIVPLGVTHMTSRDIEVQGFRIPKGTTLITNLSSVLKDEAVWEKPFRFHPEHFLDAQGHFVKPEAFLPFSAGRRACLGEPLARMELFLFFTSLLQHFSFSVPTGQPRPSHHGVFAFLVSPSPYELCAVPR
# CYP3A4 (Homo sapiens, UniProt P08684), sequence (P08684 whole entry): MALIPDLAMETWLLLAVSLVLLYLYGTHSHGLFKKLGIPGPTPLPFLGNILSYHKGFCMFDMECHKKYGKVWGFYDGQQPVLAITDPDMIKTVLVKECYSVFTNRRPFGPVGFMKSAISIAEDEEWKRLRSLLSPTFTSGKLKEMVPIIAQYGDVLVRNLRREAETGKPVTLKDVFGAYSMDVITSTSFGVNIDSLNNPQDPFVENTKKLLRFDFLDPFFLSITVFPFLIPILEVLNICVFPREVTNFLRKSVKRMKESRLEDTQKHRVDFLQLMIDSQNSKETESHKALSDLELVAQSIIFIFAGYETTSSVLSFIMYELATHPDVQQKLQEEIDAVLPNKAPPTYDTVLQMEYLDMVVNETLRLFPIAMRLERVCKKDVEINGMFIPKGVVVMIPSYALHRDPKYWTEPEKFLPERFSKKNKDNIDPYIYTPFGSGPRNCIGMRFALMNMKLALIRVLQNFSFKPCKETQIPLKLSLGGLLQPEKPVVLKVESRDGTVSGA
molecule,measurement,setting,value
"CC(=O)O[C@@H]1CO[C@@H](O[C@H]2CC[C@]34C[C@]35C[C@@H](OC(C)=O)[C@]3(C)[C@H]6[C@H](C)C[C@]7(OC(O)[C@]8(C)O[C@H]78)O[C@H]6C[C@@]3(C)[C@@H]5CC[C@H]4C2(C)C)[C@H](O)[C@H]1O (stereo partly drawn) [Compound 15, Cimiracemoside O]",% inhibition (10 µM) of CYP3A4,CYP3A4 [1],74.8±0.1%
same,IC50,CYP3A4 [1],5.1 ± 0.4 µM
25-O-acetyl-7-β-hydroxycimigenol-3-O-β-xylopyranoside [Compound 22],% inhibition (10 µM) of CYP3A4,CYP3A4 [1],61.8±0.2%
"CC(=O)O[C@@H]1C[C@@]23C[C@@]24CC[C@H](O[C@@H]2OC[C@@H](O)[C@H](O)[C@H]2O)C(C)(C)[C@@H]4CC[C@H]3[C@]2(C)C[C@@H]3O[C@@]4(C[C@@H](C)[C@@H]3[C@@]12C)OC[C@@]1(C)O[C@@H]41 [Compound 1, 23-epi-26-deoxyactein]",activity against CYP2D6 (in words),CYP2D6,inactive
same,activity against CYP3A4 (in words),CYP3A4 [1],inactive
"CC(=O)O[C@H]1[C@H](O[C@H]2CC[C@]34C[C@]35C[C@@H](OC(C)=O)[C@]3(C)[C@H]6[C@H](C)C[C@@]7(O[C@H]6C[C@@]3(C)[C@@H]5CC[C@H]4C2(C)C)O[C@H](O)[C@@]2(C)O[C@@H]72)OC[C@@H](O)[C@@H]1O [Compound 14, 2’-O-acetyl-Actein]","% inhibition (10 µM) of CYP3A4, class",CYP3A4 [1],"N/A (N/A, Not active = < 50% inhibition at 10 µM)"
25-anhydrocimigenol-3-O-β-arabinopyranoside [Compound 10],"% inhibition (10 µM) of CYP3A4, class",CYP3A4 [1],"N/A (N/A, Not active = < 50% inhibition at 10 µM)"
1-α-hydroxycimigenol-3-O-β-D-xylopyranoside [Compound 21],"% inhibition (10 µM) of CYP3A4, class",CYP3A4 [1],"N/A (N/A, Not active = < 50% inhibition at 10 µM)"
25-anhydrocimigenol-3-O-β-xylopyranoside [Compound 3],"% inhibition (10 µM) of CYP3A4, class",CYP3A4 [1],"N/A (N/A, Not active = < 50% inhibition at 10 µM)"
"CC(=O)O[C@@H]1C[C@@]23C[C@@]24CC[C@H](O[C@@H]2OC[C@H](O)[C@H](O)[C@H]2O)C(C)(C)[C@@H]4CC[C@H]3[C@]2(C)C[C@@H]3O[C@]4(C[C@@H](C)[C@@H]3[C@@]12C)OC[C@]1(C)O[C@H]41 [Compound 13, Cimiracemoside N]","% inhibition (10 µM) of CYP3A4, class",CYP3A4 [1],"N/A (N/A, Not active = < 50% inhibition at 10 µM)"
"C[C@H](CC(=O)[C@@H]1OC1(C)C)[C@H]1C(=O)C[C@@]2(C)C3=CC[C@H]4C(C)(C)[C@@H](O[C@@H]5OC[C@@H](O)[C@H](O)[C@H]5O)CC[C@@]45C[C@@]35[C@@H](O)C[C@]12C [Compound 17, Cimicifugoside H-1]","% inhibition (10 µM) of CYP3A4, class",CYP3A4 [1],"N/A (N/A, Not active = < 50% inhibition at 10 µM)"
"CC(=O)O[C@H]1CO[C@@H](O[C@H]2CC[C@]34C[C@]35CC[C@]3(C)[C@@H]([C@H](C)C[C@@H](OC(C)=O)[C@@H]6OC6(C)C)C(=O)[C@H](O)[C@@]3(C)[C@@H]5CC[C@H]4C2(C)C)[C@H](O)[C@H]1O [Compound 16, Cimiracemoside L]",% inhibition (10 µM) of CYP3A4,CYP3A4 [1],94.2±0.3%
same,IC50,CYP3A4 [1],2.4 ± 0.2 µM
"CC(=O)O[C@@H]1C[C@@]23C[C@@]24CC[C@H](O[C@@H]2OC[C@@H](O)[C@H](O)[C@H]2O)C(C)(C)[C@@H]4CC[C@H]3[C@]2(C)C[C@@H]3O[C@]4(C[C@@H](C)[C@@H]3[C@@]12C)O[C@H](O)[C@@]1(C)O[C@@H]41 [Compound 11, Actein (R,S)]",activity against CYP2D6 (in words),CYP2D6,inactive
same,activity against CYP3A4 (in words),CYP3A4 [1],inactive
same,"% inhibition (10 µM) of CYP3A4, class",CYP3A4 [1],"N/A (N/A, Not active = < 50% inhibition at 10 µM)"
"CN1CCc2cc3c(cc2C(=O)Cc2ccc4c(c2C1)OCO4)OCO3 [Protopine, protopine]",Ki,CYP2D6,0.078 µM
25-O-acetylcimigenol-3-O-α-arabinopyranoside [Compound 9],"% inhibition (10 µM) of CYP3A4, class",CYP3A4 [1],"N/A (N/A, Not active = < 50% inhibition at 10 µM)"
"CC(=O)O[C@@H]1C[C@@]23C[C@@]24CC[C@H](O[C@@H]2OC[C@@H](O)[C@H](O)[C@H]2O)C(C)(C)[C@@H]4CC[C@H]3[C@]2(C)C[C@@H]3O[C@]4(C[C@@H](C)[C@@H]3[C@@]12C)OC[C@@]1(C)O[C@@H]41 [Compound 4, 26-deoxyactein]",activity against CYP2D6 (in words),CYP2D6,inactive
same,activity against CYP3A4 (in words),CYP3A4 [1],inactive
same,"% inhibition (10 µM) of CYP3A4, class",CYP3A4 [1],"N/A (N/A, Not active = < 50% inhibition at 10 µM)"
"COc1ccc2c(c1OC)CN(C)CCc1cc3c(cc1C(=O)C2)OCO3 [Allocryptopine, allocryptopine]","inhibition at 20 min, 10 µM",[2],16.8 ± 2.8%
same,"inhibition at 20 min, 10 µM",[3],57.9 ± 4.3%
same,"inhibition at 20 min, 10 µM",[4],< 10%
"C=C(C)[C@@H]1O[C@@]23O[C@@H]1C[C@@H](C)[C@@H]2[C@@]1(C)[C@H](OC(C)=O)C[C@@]24C[C@@]25CC[C@H](O[C@@H]2OC[C@H](O)[C@H](O)[C@H]2O)C(C)(C)[C@@H]5CC[C@H]4[C@]1(C)[C@H]3O [Compound 6, Cimiracemoside J]","% inhibition (10 µM) of CYP3A4, class",CYP3A4 [1],"N/A (N/A, Not active = < 50% inhibition at 10 µM)"
7-β-hydroxycimigenol aglycone [Compound 20],% inhibition (10 µM) of CYP3A4,CYP3A4 [1],64.9±1.1%
25-O-acetylcimigenol-3-O-β-xylopyranoside [Compound 8],"% inhibition (10 µM) of CYP3A4, class",CYP3A4 [1],"N/A (N/A, Not active = < 50% inhibition at 10 µM)"
"CC(=O)O[C@@H]1C[C@@]23C[C@@]24CC[C@H](O[C@@H]2OC[C@@H](O)[C@H](O)[C@H]2O)C(C)(C)[C@@H]4CC[C@H]3[C@]2(C)C[C@@H]3O[C@]4(C[C@@H](C)[C@@H]3[C@@]12C)OC(=O)[C@]1(C)O[C@H]41 [Compound 5, Cimiracemoside P]","% inhibition (10 µM) of CYP3A4, class",CYP3A4 [1],"N/A (N/A, Not active = < 50% inhibition at 10 µM)"
23-O-acetylshengmanol-3-β-D-xylopyranoside [Compound 12],CYP3A4 inhibition (in words),CYP3A4 [5],weak inhibitor
1-α-hydroxycimigenol-3-O- α-L-arabinopyranoside [Compound 19],"% inhibition (10 µM) of CYP3A4, class",CYP3A4 [1],"N/A (N/A, Not active = < 50% inhibition at 10 µM)"
"C=C(C)[C@@H]1O[C@@]23O[C@@H]1C[C@@H](C)[C@@H]2[C@@]1(C)[C@H](OC(C)=O)C[C@@]24C[C@@]25CC[C@H](O[C@@H]2OC[C@@H](O)[C@H](O)[C@H]2O)C(C)(C)[C@@H]5CC[C@H]4[C@]1(C)[C@H]3O [Compound 7, Cimiracemoside K]",% inhibition (10 µM) of CYP3A4,CYP3A4 [1],85.2±0.3%
same,IC50,CYP3A4 [1],3.8 ± 0.5 µM

# — paper PMC3565011 (Xenobiotica; the fate of foreign compounds in biological …, 2011)
